Results: PMC7036132, “Effects of the Salt-Processing Method on the Pharmacokinetics and Tissue Distribution of Orally Administered Morinda officinalis How. Extract” (Journal of Analytical Methods in Chemistry, 2020)
Several values for one entry are separate records, joined by “and”; a condition that tells them apart may be missing. Identical values can stand only once. Values belong to the molecule of their own block, whether it stands above or below them.

Legend:
[1] = Tissue distribution after oral administration of MO and SMO extract; format: in vivo, SD rats; details: rat; 0.25, 1, 3 and 6 h after oral MO or SMO extract 40 g/kg
Protocol: (§1) For LC-MS/MS analysis, data acquisition and instrument control were performed using MassLynx 4.1 software (Waters Corp., Milford, MA, USA). The analysis column was an Acquity UPLC HSS T3 column (100 mm × 2.1 mm, 1.8 μm, Waters) with a temperature of 40°C. The mobile phase was acetonitrile containing 0.1% formic acid (A) and 0.1% formic acid aqueous solution (B). The elution gradient was 0.00–0.50 min with 2% B; 0.51–5.00 min with 2%–30% B; and 5.01–7.00 min with 40% B. The flow rate was 0.2 mL/min.
(§2) The Waters triple quadruple mass spectrometer (Xevo TQD, Waters Corp., Milford, MA, USA) equipped with an electrospray ionization source (ESI) was used in negative ion mode. The desolvation gas was nitrogen with a flow rate of 500 L/h at a temperature of 250°C. All detected compounds were measured in multiple reaction monitoring (MRM) mode.
The whole tissue was cut into pieces and homogenized with ice-cold 0.9% (m/v) sodium chloride solution (1 : 9, w/v). Using 50 μL of tissue homogenate, the tissue samples were prepared in the same way as the plasma samples.
MO and SMO ethanol extract (40 g/kg) was orally administered to SD rats (weight, 180–220 g, n = 6), at 0.25, 1, 3, and 6 h, respectively. […]

[2] = Pharmacokinetics in rat plasma after oral administration of MO and SMO extract (UPLC-MS/MS); format: in vivo, Sprague-Dawley (SD) rats; details: for Cmax: rat, plasma, po, 40 g/kg; for Cmax / AUC (0-t) / AUC (0-∞) / CL/F / MRT (0-t) / T max / V/F / t1/2z: n = 6
Protocol: as §1, §2
10 μL of IS working solution and 400 μL of methanol were added to 100 μL plasma. The solution was vortexed for 10 min and then centrifuged at 12,000 rpm for 5 min. The supernatant was shifted to another centrifugation tube and dried with nitrogen at 37°C. The residue was redissolved in 100 μL acetonitrile and centrifuged for 5 min at 12,000 rpm. Five microliters of supernatant was drawn and analyzed by UPLC-MS/MS.
The SD rats (6, male) were housed at 22 ± 2°C and fasted for 12 h with drinking water available ad libitum. MO and SMO ethanol extract were orally administered at a dose of 40 g/kg (equivalent to 6.44 and 3.95 mg/kg of monotropein, 0.088 and 0.091 mg/kg of rubiadin, and 0.174 and 0.178 mg/kg of rubiadin 1-methyl ether). Blood samples (0.5 mL) were collected from the venous plexus of the eye socket at 0.083, 0.25, 0.5, 1.0, 1.5, 2.0, 2.5, 4.0, 6.0, 12.0, and 24 h under anesthesia. Then, the blood samples were centrifuged at 4500 rpm for 10 min, and then the plasma was immediately transferred to new tubes and stored at −80°C until analysis. The pharmacokinetic parameters were calculated using DAS software (3.0 version, China Food and Drug Administration) based on noncompartmental method. All data were recorded as mean ± SD.

[3] = Stability of the three components in rat plasma and tissues (QC samples); details: n = 5
Protocol: The preparation of calibration standards was done as follows: The appropriate working solution was spiked into blank plasma or tissues to obtain concentrations of 75∼0.047 μg/mL for monotropein, 396∼1.54 μg/mL for rubiadin, and 596∼1.16 μg/mL for rubiadin 1-methyl ether. The QC concentrations for monotropein were 0.14 μg/mL, 2 μg/mL, and 28.1 μg/mL; for rubiadin, they were 1.6 μg/mL, 50.6 μg/mL, and 712.5 μg/mL; and for rubiadin 1-methyl ether, they were 3.9 μg/mL, 54.6 μg/mL, and 765 μg/mL. The QC samples used for the recovery, matrix effect, intra- and interday accuracy, precision, and stability studies were prepared in the same way as that of the calibration standards. The solutions were stored for one week at −20°C.
The QC samples used for the recovery QC samples were used to judge the stability, and the storage conditions were as follows: (1) freeze-thaw stability, (2) at room temperature for 4 h, and (3) put into the autosampler for 8 h, and (4) at −20°C for 30 days. The permitted range was within 15%.

[4] = male, Sprague-Dawley, oral MO extract 40 g/kg
[5] = male, Sprague-Dawley, oral SMO extract 40 g/kg
[6] = rat kidney, high Conc (rubiadin 4.63, rubiadin 1-methyl ether 3.49, monotropein 28.13 μg/mL)
[7] = rat kidney, low Conc (rubiadin 0.21, rubiadin 1-methyl ether 0.15, monotropein 1.41 μg/mL)
[8] = rat kidney, middle Conc (rubiadin 0.98, rubiadin 1-methyl ether 0.72, monotropein 6.2 μg/mL)
[9] = rat liver, high Conc (rubiadin 4.63, rubiadin 1-methyl ether 3.49, monotropein 28.13 μg/mL)
[10] = rat liver, low Conc (rubiadin 0.21, rubiadin 1-methyl ether 0.15, monotropein 1.41 μg/mL)
[11] = rat liver, middle Conc (rubiadin 0.98, rubiadin 1-methyl ether 0.72, monotropein 6.2 μg/mL)
[12] = rat lung, high Conc (rubiadin 4.63, rubiadin 1-methyl ether 3.49 μg/mL)
[13] = rat lung, low Conc (rubiadin 0.21, rubiadin 1-methyl ether 0.15 μg/mL)
[14] = rat lung, middle Conc (rubiadin 0.98, rubiadin 1-methyl ether 0.72 μg/mL)
[15] = rat plasma, high Conc (rubiadin 712.5, rubiadin 1-methyl ether 765, monotropein 28.1 μg/mL)
[16] = rat plasma, low Conc (rubiadin 3.6, rubiadin 1-methyl ether 3.9, monotropein 0.14 μg/mL)
[17] = rat plasma, middle Conc (rubiadin 50.6, rubiadin 1-methyl ether 54.6, monotropein 2 μg/mL)
[18] = rat small intestine, high Conc (rubiadin 4.63, rubiadin 1-methyl ether 3.49, monotropein 28.13 μg/mL)
[19] = rat small intestine, low Conc (rubiadin 0.21, rubiadin 1-methyl ether 0.15, monotropein 1.41 μg/mL)
[20] = rat small intestine, middle Conc (rubiadin 0.98, rubiadin 1-methyl ether 0.72, monotropein 6.2 μg/mL)

Concentration in lung tissue [1]: could not be quantified
Cmax [2, 4]: 23.3 ± 0.764 ng/mL
Cmax [2, 5]: 23.3 ± 0.676 ng/mL
Shape of plasma concentration-time curve ([2]; oral MO and SMO extract 40 g/kg): obvious double-peak phenomenon
AUC (0-t) ([2]; oral MO extract 40 g/kg): 44.22 ± 0.932 μg/L ∗ h
AUC (0-∞) ([2]; oral MO extract 40 g/kg): 48.952 ± 1.559 μg/L ∗ h
CL/F ([2]; oral MO extract 40 g/kg): 0.818 ± 0.265 L/g/h
MRT (0-t) ([2]; oral MO extract 40 g/kg): 3.863 ± 0.184 H
T max ([2]; oral MO extract 40 g/kg): 1.0 H and 1.0 ± 0.00 H
V/F ([2]; oral MO extract 40 g/kg): 14.447 ± 2.143 L/g
t1/2z ([2]; oral MO extract 40 g/kg): 12.291 ± 2.09 H
AUC (0-t) ([2]; oral SMO extract 40 g/kg): 26.941 ± 1.423 μg/L ∗ h
AUC (0-∞) ([2]; oral SMO extract 40 g/kg): 27.045 ± 1.338 μg/L ∗ h
CL/F ([2]; oral SMO extract 40 g/kg): 1.482 ± 0.750 L/g/h
MRT (0-t) ([2]; oral SMO extract 40 g/kg): 1.686 ± 0.025 H
T max ([2]; oral SMO extract 40 g/kg): 0.5 H and 0.5 ± 0.00 H
V/F ([2]; oral SMO extract 40 g/kg): 12.239 ± 9.027 L/g
t1/2z ([2]; oral SMO extract 40 g/kg): 5.611 ± 3.958 H
Compound: O=C(O)C1=CO[C@@H](O[C@@H]2O[C@H](CO)[C@@H](O)[C@H](O)[C@H]2O)[C@H]2[C@@H]1C=C[C@]2(O)CO [Monotropein, monotropein]

Compound: COc1c(C)c(O)cc2c1C(=O)c1ccccc1C2=O [Rubiadin 1-methyl ether, rubiadin 1-methyl ether]
Stability RE%, At 25°C for 12 h [3, 6]: −3.58%
Stability RE%, Autosampler at 4°C for 24 h [3, 6]: −0.36%
Stability RE%, Freeze–thaw cycles [3, 6]: −1.57%
Stability RE%, −20°C for 30 days [3, 6]: 0.54%
Stability RE%, At 25°C for 12 h [3, 7]: 0.35%
Stability RE%, Autosampler at 4°C for 24 h [3, 7]: −0.36%
Stability RE%, Freeze–thaw cycles [3, 7]: 0.15%
Stability RE%, −20°C for 30 days [3, 7]: −5.1%
Stability RE%, At 25°C for 12 h [3, 8]: 0.24%
Stability RE%, Autosampler at 4°C for 24 h [3, 8]: −0.68%
Stability RE%, Freeze–thaw cycles [3, 8]: −0.54%
Stability RE%, −20°C for 30 days [3, 8]: −2.49%
Stability RE%, At 25°C for 12 h [3, 9]: 0.42%
Stability RE%, Autosampler at 4°C for 24 h [3, 9]: −0.66%
Stability RE%, Freeze–thaw cycles [3, 9]: −0.68%
Stability RE%, −20°C for 30 days [3, 9]: −2.58%
Stability RE%, At 25°C for 12 h [3, 10]: −2.1%
Stability RE%, Autosampler at 4°C for 24 h [3, 10]: 0.54%
Stability RE%, Freeze–thaw cycles [3, 10]: −1.52%
Stability RE%, −20°C for 30 days [3, 10]: −0.58%
Stability RE%, At 25°C for 12 h [3, 11]: −3.42%
Stability RE%, Autosampler at 4°C for 24 h [3, 11]: −3.81%
Stability RE%, Freeze–thaw cycles [3, 11]: −5.42%
Stability RE%, −20°C for 30 days [3, 11]: −0.45%
Stability RE%, At 25°C for 12 h [3, 12]: −0.06%
Stability RE%, Autosampler at 4°C for 24 h [3, 12]: −2.42%
Stability RE%, Freeze–thaw cycles [3, 12]: −0.53%
Stability RE%, −20°C for 30 days [3, 12]: 0.05%
Stability RE%, At 25°C for 12 h [3, 13]: −0.57%
Stability RE%, Autosampler at 4°C for 24 h [3, 13]: −8.51%
Stability RE%, Freeze–thaw cycles [3, 13]: −2.57%
Stability RE%, −20°C for 30 days [3, 13]: −1.54%
Stability RE%, At 25°C for 12 h [3, 14]: −5.71%
Stability RE%, Autosampler at 4°C for 24 h [3, 14]: −0.65%
Stability RE%, Freeze–thaw cycles [3, 14]: −4.85%
Stability RE%, −20°C for 30 days [3, 14]: −0.55%
Stability RE%, At 25°C for 12 h [3, 15]: −5.1%
Stability RE%, Autosampler at 4°C for 24 h [3, 15]: −3.14%
Stability RE%, Freeze–thaw cycles [3, 15]: −3.71%
Stability RE%, −20°C for 30 days [3, 15]: −0.86%
Stability RE%, At 25°C for 12 h [3, 16]: −1.79%
Stability RE%, Autosampler at 4°C for 24 h [3, 16]: −1.49%
Stability RE%, Freeze–thaw cycles [3, 16]: −0.94%
Stability RE%, −20°C for 30 days [3, 16]: −3.26%
Stability RE%, At 25°C for 12 h [3, 17]: −4.21%
Stability RE%, Autosampler at 4°C for 24 h [3, 17]: −1.65%
Stability RE%, Freeze–thaw cycles [3, 17]: −1.35%
Stability RE%, −20°C for 30 days [3, 17]: −0.23%
Stability RE%, At 25°C for 12 h [3, 18]: 0.25%
Stability RE%, Autosampler at 4°C for 24 h [3, 18]: 0.48%
Stability RE%, Freeze–thaw cycles [3, 18]: −0.74%
Stability RE%, −20°C for 30 days [3, 18]: 1.35%
Stability RE%, At 25°C for 12 h [3, 19]: −0.69%
Stability RE%, Autosampler at 4°C for 24 h [3, 19]: −0.42%
Stability RE%, Freeze–thaw cycles [3, 19]: −6.57%
Stability RE%, −20°C for 30 days [3, 19]: −1.25%
Stability RE%, At 25°C for 12 h [3, 20]: −0.85%
Stability RE%, Autosampler at 4°C for 24 h [3, 20]: −0.62%
Stability RE%, Freeze–thaw cycles [3, 20]: −0.57%
Stability RE%, −20°C for 30 days [3, 20]: −0.25%
Cmax compared among the three components ([2]; especially in the SMO groups): the highest
Cmax [2, 4]: 432 ± 37 ng/mL
Cmax [2, 5]: 509 ± 35.1 ng/mL
AUC (0-t) ([2]; oral MO extract 40 g/kg): 1059.49 ± 98.081 μg/L ∗ h
AUC (0-∞) ([2]; oral MO extract 40 g/kg): 1074.351 ± 102.019 μg/L ∗ h
CL/F ([2]; oral MO extract 40 g/kg): 0.037 ± 0.372 L/g/h
MRT (0-t) ([2]; oral MO extract 40 g/kg): 2.908 ± 0.151 H
T max ([2]; oral MO extract 40 g/kg): 0.5 ± 0.00 H
V/F ([2]; oral MO extract 40 g/kg): 0.287 ± 0.067 L/g
t1/2z ([2]; oral MO extract 40 g/kg): 5.379 ± 1.514 H
AUC (0-t) ([2]; oral SMO extract 40 g/kg): 1244.329 ± 82.805 μg/L ∗ h
AUC (0-∞) ([2]; oral SMO extract 40 g/kg): 1253.526 ± 84.691 μg/L ∗ h
CL/F ([2]; oral SMO extract 40 g/kg): 0.032 ± 0.210 L/g/h
MRT (0-t) ([2]; oral SMO extract 40 g/kg): 2.855 ± 0.15 H
T max ([2]; oral SMO extract 40 g/kg): 0.5 ± 0.00 H
V/F ([2]; oral SMO extract 40 g/kg): 0.196 ± 0.363 L/g
t1/2z ([2]; oral SMO extract 40 g/kg): 4.27 ± 0.865 H
Cmax and AUC0-t, SMO groups compared with the MO group ([2]; oral extract 40 g/kg): elevated remarkably

Tmax ([2]; male, Sprague-Dawley, oral extract 40 g/kg, MO or SMO group not specified): 1.5 h
Cmax [2, 4]: 46.7 ± 12.9 ng/mL
Cmax [2, 5]: 50.2 ± 8.9 ng/mL
AUC (0-t) ([2]; oral MO extract 40 g/kg): 152.252 ± 7.098 μg/L ∗ h
AUC (0-∞) ([2]; oral MO extract 40 g/kg): 153.816 ± 7.169 μg/L ∗ h
CL/F ([2]; oral MO extract 40 g/kg): 0.261 ± 0.012 L/g/h
MRT (0-t) ([2]; oral MO extract 40 g/kg): 6.062 ± 0.272 H
T max ([2]; oral MO extract 40 g/kg): 1.5 ± 0.00 H
V/F ([2]; oral MO extract 40 g/kg): 1.442 ± 0.090 L/g
t1/2z ([2]; oral MO extract 40 g/kg): 3.838 ± 0.196 H
AUC (0-t) ([2]; oral SMO extract 40 g/kg): 169.355 ± 8.836 μg/L ∗ h
AUC (0-∞) ([2]; oral SMO extract 40 g/kg): 176.441 ± 18.283 μg/L ∗ h
CL/F ([2]; oral SMO extract 40 g/kg): 0.228 ± 0.022 L/g/h
MRT (0-t) ([2]; oral SMO extract 40 g/kg): 5.89 ± 0.265 H
T max ([2]; oral SMO extract 40 g/kg): 1.5 ± 0.00 H
V/F ([2]; oral SMO extract 40 g/kg): 1.579 ± 0.842 L/g
t1/2z ([2]; oral SMO extract 40 g/kg): 5.006 ± 3.383 H
Cmax and AUC0-t, SMO groups compared with the MO group ([2]; oral extract 40 g/kg): elevated remarkably
Compound: Cc1c(O)cc2c(c1O)C(=O)c1ccccc1C2=O [Rubiadin, rubiadin]
